Values quoted from earlier work in US12564551B2, “Composition or oat extract comprising avenanthramide and β-glucan” (SYMRISE AG, priority 2020, dated 2026).

Conditions: Avn C, followed by Avn B and Avn A

Structure (SMILES): O=C(C=Cc1ccc(O)c(O)c1)Nc1ccc(O)cc1C(=O)O [Avn C, N-(3′,4′-dihydroxycinnamoyl)-5-hydroxyanthranilic acid]
- antioxidant activity, rank among Avns (in words): highest activity
